Data as given in patent US10562898B2, “Substituted benzenesulfonamides as inhibitors of alpha-4 beta-7 integrin activity” (EA PHARMA CO., LTD., priority 2016, dated 2020).

Target: T1, T cell α4β7 integrin (Homo sapiens, UniProt P13612+P26010)
T1 construct: Blood samples were obtained from healthy volunteers' blood donation; endogenous in cells; host or cells: CD4-positive T cells in whole blood of healthy human volunteers
T1 sequence (P13612 34-1032): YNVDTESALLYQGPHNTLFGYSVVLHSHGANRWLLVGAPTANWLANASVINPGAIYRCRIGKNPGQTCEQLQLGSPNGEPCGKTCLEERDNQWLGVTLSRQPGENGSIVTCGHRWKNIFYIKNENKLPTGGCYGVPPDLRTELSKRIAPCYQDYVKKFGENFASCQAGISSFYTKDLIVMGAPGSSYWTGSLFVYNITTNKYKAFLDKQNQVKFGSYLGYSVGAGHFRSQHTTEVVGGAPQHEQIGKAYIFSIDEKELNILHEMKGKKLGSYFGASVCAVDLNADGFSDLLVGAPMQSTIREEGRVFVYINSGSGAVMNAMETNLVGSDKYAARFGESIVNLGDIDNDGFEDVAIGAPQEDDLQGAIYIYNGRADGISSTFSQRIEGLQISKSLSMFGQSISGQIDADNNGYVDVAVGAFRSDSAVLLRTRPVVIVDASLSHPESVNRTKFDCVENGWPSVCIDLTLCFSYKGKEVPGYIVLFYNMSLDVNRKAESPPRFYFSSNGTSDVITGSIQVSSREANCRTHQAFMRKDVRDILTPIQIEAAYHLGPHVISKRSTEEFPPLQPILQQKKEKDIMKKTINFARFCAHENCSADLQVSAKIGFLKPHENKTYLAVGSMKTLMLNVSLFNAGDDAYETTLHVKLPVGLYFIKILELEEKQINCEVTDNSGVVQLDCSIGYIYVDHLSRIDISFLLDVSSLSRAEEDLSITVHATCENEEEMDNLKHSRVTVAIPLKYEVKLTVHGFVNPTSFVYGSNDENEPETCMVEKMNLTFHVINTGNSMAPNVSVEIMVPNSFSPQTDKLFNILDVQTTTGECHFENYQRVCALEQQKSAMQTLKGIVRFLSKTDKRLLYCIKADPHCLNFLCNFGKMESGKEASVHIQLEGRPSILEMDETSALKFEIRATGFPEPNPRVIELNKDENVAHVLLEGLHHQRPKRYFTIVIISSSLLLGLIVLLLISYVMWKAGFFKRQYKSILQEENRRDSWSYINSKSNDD
T1 sequence (P26010 20-798): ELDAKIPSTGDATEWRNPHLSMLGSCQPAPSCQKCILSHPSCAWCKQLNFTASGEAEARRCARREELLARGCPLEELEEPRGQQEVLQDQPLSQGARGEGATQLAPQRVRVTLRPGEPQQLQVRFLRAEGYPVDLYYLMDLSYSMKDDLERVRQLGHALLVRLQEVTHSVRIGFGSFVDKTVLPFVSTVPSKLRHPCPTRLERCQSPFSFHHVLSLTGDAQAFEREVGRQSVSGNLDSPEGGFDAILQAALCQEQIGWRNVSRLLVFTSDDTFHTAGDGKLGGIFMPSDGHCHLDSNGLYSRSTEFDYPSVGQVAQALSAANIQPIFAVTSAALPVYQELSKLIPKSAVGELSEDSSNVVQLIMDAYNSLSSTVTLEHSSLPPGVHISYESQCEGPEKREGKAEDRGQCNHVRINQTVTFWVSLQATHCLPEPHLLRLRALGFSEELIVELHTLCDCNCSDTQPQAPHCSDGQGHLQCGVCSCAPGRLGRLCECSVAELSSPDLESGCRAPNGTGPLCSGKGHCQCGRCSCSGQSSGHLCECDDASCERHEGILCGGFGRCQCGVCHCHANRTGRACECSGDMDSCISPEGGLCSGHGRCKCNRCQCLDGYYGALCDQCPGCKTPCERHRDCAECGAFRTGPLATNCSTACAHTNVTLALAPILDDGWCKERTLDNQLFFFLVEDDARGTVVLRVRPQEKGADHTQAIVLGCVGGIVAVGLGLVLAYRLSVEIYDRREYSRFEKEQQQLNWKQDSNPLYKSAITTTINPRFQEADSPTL
Assay: Human MAdCAM-1/α4β7 integrin binding inhibitory activity evaluation test in whole human blood
Format: cell-based
Conditions: recombinant human MAdCAM-1/Fc, CD4 positive cells, flow cytometry
Description: Human MAdCAM-1/α4β7 Integrin Binding Inhibitory Activity Evaluation Test in Whole Human Blood
Each test substance was measured in terms of the inhibitory activity of binding of T cell α4β7 integrin and MAdCAM-1 in human whole blood. Blood samples were obtained from healthy volunteers' blood donation.
A 4 mM MnCl2 solution and each of dilutions of various test substances were added to human whole blood, followed by incubation for 10 minutes. Recombinant human MAdCAM-1/Fc (R&D Systems) at 10 μg/mL was added, and each test sample taken in a total amount of 50 μL was incubated for 30 minutes. Then, 950 μL of Lyse/Fix (BD Biosciences) was added to allow hemolysis and fixation to proceed at 37° C. for 10 minutes. After centrifugation for 5 minutes, the supernatant was removed and 600 μL of a RPMI-1640 medium supplemented with 10% inactivated fetal bovine serum (hereinafter referred to as the medium) was added, followed by centrifugation for 5 minutes, removal of the supernatant, and then washing. The test sample was washed again with the medium, and then 2.5 μg/mL Mouse Anti-MAdCAM-1 antibody (Invitrogen) was added, followed by incubation for 30 minutes or more. After the test sample was washed with the medium, 3.4 μg/mL Goat Anti-Mouse IgG H&L, FITC (Abcam) was added, followed by incubation for 30 minutes or more. After the test sample was washed with the medium, 0.15 μg/mL PE Rat Anti-Mouse CD4 (BD Pharmigen) was added, followed by incubation for 30 minutes or more. After the test sample was washed with the medium, a ratio of MAdCAM-1 positive cells to CD4 positive cells was measured by using flow cytometry.
From independent test results using different blood samples of two to three persons, a MAdCAM-1 binding inhibiting rate of each test substance at each of various concentrations was obtained under the setting in which, among wells containing no test substances, a well containing no ligand was scored at 100% inhibition and a well containing ligand was scored at 0% inhibition, and then a concentration IC50 which brought about 50% binding inhibition was calculated.

Compound | IC50 [nM]
Cc1cn(C)c(=O)n(-c2ccc(C[C@H](NC(=O)c3cc(F)c(NS(=O)(=O)c4ccc(NC(=O)C5(C(F)(F)F)CC5)cc4)cc3F)C(=O)O)cn2)c1=O [Compound A56] | 5.4
Cc1cn(C)c(=O)n(-c2ccc(C[C@H](NC(=O)c3cc(F)c(NS(=O)(=O)c4ccc(NC(=O)C(C)(C)C(F)(F)F)cc4)cc3F)C(=O)O)cn2)c1=O [Compound A58] | 5.1
Cn1cc(C(F)(F)F)c(=O)n(-c2ccc(C[C@H](NC(=O)c3cc(F)c(NS(=O)(=O)c4ccc(NC(=O)C(C)(C)C)cc4)cc3F)C(=O)O)cn2)c1=O [Compound A67] | 5.7
CN1CCC(=O)N(c2ccc(C[C@H](NC(=O)c3cc(F)c(NS(=O)(=O)c4ccc(NC(=O)C(C)(C)C)cc4)cc3F)C(=O)O)cn2)C1=O [Compound A75, (2S)-2-[2,5-difluoro-4-[(4-pivalamidophenyl)sulfonamide]benzamido]-3-[6-(3-methyl-2,6-dioxotetrahydropyrimidin-1(2H)-yl)pyridin-3-yl]propanoic acid] | 5.6
Cc1cn(C)c(=O)n(-c2ccc(C[C@H](NC(=O)c3cc(F)c(NS(=O)(=O)c4ccc(NC(=O)C(C)(C)CO)cc4)cc3F)C(=O)O)cn2)c1=O [Compound A63] | 4.8

Stronger by IC50, values ahead:

IC50 [nM] | Compound
2.9 | Cn1ccc(=O)n(-c2ccc(C[C@H](NC(=O)c3cc(F)c(NS(=O)(=O)c4ccc(NC(=O)C(C)(C)C)cc4)cc3F)C(=O)O)cn2)c1=O [Compound A53]
2 | Cc1cn(C)c(=O)n(-c2ccc(C[C@H](NC(=O)c3cc(F)c(NS(=O)(=O)c4ccc(NC(=O)C(C)(C)C)cc4)cc3F)C(=O)O)cn2)c1=O [Compound A54]
1.5 | Cc1cc(=O)n(-c2ccc(C[C@H](NC(=O)c3cc(F)c(NS(=O)(=O)c4ccc(NC(=O)C(C)(C)C)cc4)cc3F)C(=O)O)cn2)c(=O)n1C [Compound A45]
